Data set [1] in a line: plasma half-life after IP injection into mice. The class given is in vivo. Particulars: mouse, injected IP into mice.
Data set [2] concerns PGE2 production by cell lines. The data set is described as follows: PGE2 production by cell lines. The class given is cell-based.
The nature of data set [3]: chemical stability when incubated with rat liver extracts. The class given is in vitro ADME.
A further data set concerns the target T1, recombinant 15-PGDH (Homo sapiens, UniProt P15428).
T1 sequence (P15428 1-266): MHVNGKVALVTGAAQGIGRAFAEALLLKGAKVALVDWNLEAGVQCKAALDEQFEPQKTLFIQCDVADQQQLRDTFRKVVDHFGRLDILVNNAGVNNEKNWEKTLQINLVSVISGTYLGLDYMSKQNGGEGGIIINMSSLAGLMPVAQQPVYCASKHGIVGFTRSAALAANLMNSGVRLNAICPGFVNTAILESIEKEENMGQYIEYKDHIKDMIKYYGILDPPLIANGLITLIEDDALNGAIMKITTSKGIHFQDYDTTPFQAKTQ
Nature of the data set: inhibition of recombinant 15-PGDH. The class given is biochemical.

Data set [4] in a line: chemical stability when incubated with human liver extracts. The class given is in vitro ADME.
Data set [5] can be described thus: chemical stability when incubated with mouse liver extracts. The format is in vitro ADME.
Data set [6] concerns mouse model of intestinal fibrosis. Nature of the data set: DSS chronic colitis mouse model of intestinal fibrosis. The format is in vivo, FVB/N mice. The settings on record: 5 mg/kg IP twice a day for 28 days from day 41, colons day 69, vs vehicle. As for the experimental part: To establish a model of intestinal fibrosis due to chronic colitis, 8-week male FVB/N mice were subjected to three cycles of dextran sodium sulfate (DSS; 2% w/v) in sterile drinking water. Each cycle consisted of 7 days of DSS followed by 10 days of recovery without DSS. […] On day 69, colons were harvested from mice, longitudinally open, and embedded in agar for orientation, and fixed in formalin overnight. Slides were prepared from paraffin-embedded formalin-fixed samples according to standard procedures. The degree of fibrosis in the mouse colon in the two groups were compared by Masson's Trichrome staining. The intensity of positive trichrome staining was quantified using ImageJ software in the following manner. 10 evenly spaced images were captured at 20× from each third of the colon from each mouse. (FIGS. 7(A-D)) Significant lymphovascular compartments or extracolonic connective tissue attachments seen on slides were excluded during the image capture. RGB channels were split from the images, and the blue channel from each image was divided by the red channel. After generating an intensity histogram of all pixels in the resultant image, the area under the curve (AUC) was calculated for intensities above 1.3 (blue/red) cutoff. The sum of AUC (total trichrome intensity) was normalized by the colon length.

The nature of data set [7]: chemical stability in aqueous solutions. Particulars: over broad pH range. The format is physicochemical.
The next data set has as its system mice. Nature of the data set: toxicity after IP injection into mice.
Data set [8] in a line: chemical stability when incubated with hepatocyte extracts. The class given is in vitro ADME.
A short description of data set [9]: chemical stability when incubated with hepatocyte cell lines. The class given is in vitro ADME.
In data set [10] the test system is mouse model of idiopathic pulmonary fibrosis. Nature of the data set: bleomycin mouse model of idiopathic pulmonary fibrosis. The class given is in vivo, C57/BL6J mice. The settings on record: vs vehicle. As for the experimental part:
8 week old female C57/BL6J mice were purchased from Jackson Labs (stock #000664). All mouse studies were approved by the institutional animal care and use committee at Case Western Reserve University.
To induce disease onset, mice were anesthetized with ketamine/xylazine and the trachea exposed by cervical […]. Bleomycin sulfate (Enzo-BML-AP302-0010) was dissolved in H2O and administered intratracheally as a single dose of 2 mg/kg in 50 μl solution per animal.
Mortality was observed daily over the duration of the study. Body weights were measured prior to instillation and twice weekly post-bleomycin instillation.
Hydroxyproline was used to measure collagen content in mouse lungs (Sigma-MAK008-1KT). Briefly, mice were sacrificed and the right lung dissected for collagen quantitation. Experiments were performed according to the manufacturer's protocol. […] The hydrolyzed samples were incubated with 4-(Dimethylamino) benzaldehyde (DMAB) for 90 min at 60° C., and the absorbance of oxidized hydroxyproline was measured at 560 nm.

Setting [11] is: 5.0 mg/kg IP 2× daily for 35 days after bleomycin.

In turn, `CCCC[S+]([O-])c1sc2nc(-c3nccs3)cc(-c3cnc(C)n3C)c2c1N` (stereo not drawn) [formula (X)] showed a half-life in [1] of 0.55 h. The “concentration at which PGE2 production by cell lines is increased” value in data set [2] was 20 nM. The “chemical stability with liver extracts” value in data set [3], in data set [4] and in [5] was “chemically stable” in each case. Moreover, the “concentration at which recombinant 15-PGDH is inhibited” value at recombinant 15-PGDH was 3 nM.

`CCCC[S+]([O-])c1sc2nc(-c3cccs3)cc(-c3ccccc3)c2c1N` (single isomer, unassigned; (+)) [(+)SW033291]: in data set [6], the “colonic fibrosis (Masson's Trichrome staining intensity normalized by colon length)” value is given as “substantially reduced”.

As to `CCCC[S+]([O-])c1sc2nc(-c3cccs3)cc(-c3ccccc3)c2c1N` (stereo not drawn) [formula (IX)], the “chemical stability in aqueous solutions” value in data set [7] is on record as “chemically stable”. Further, the toxicity result in the data set on mice (injected IP into mice at 0.3 μmole/per mouse twice daily for 21 days) is recorded as “no toxicity”. Besides, the “immediate toxicity over 24 hours” value in the data set with mice (injected IP into mice at 0.6 μmole/per mouse) and in the data set with mice (injected IP into mice at 1.2 μmole/per mouse) was “no immediate toxicity” in each case. The same compound returned a half-life in data set [1] of 4.22 h. Also, the “PGE2 production by cell lines” value in data set [2] is “increase PGE2 production”. Further, in data set [8], the “chemical stability with hepatocyte extracts” value is “chemically stable”. In data set [9], the “chemical stability with hepatocyte cell lines” value was “chemically stable”.

`CCCC[S+]([O-])c1sc2nc(-c3cccs3)cc(-c3ccccc3)c2c1N` (stereo not drawn) [SW033291, 2-(butylsulfinyl)-4-phenyl-6-(thiophen-2-yl)thieno[2,3-b]pyridin-3-amine]: in data set [10] (setting [11]), the survival result is given as “improved survival” and the weight change entry was “enhanced maintenance of weight”. Also, the “collagen deposition (tissue hydroxyproline content)” value in data set [10] (lung, 5.0 mg/kg IP 2× daily after bleomycin) is reported as “reduced collagen deposition”.
